pEC50: −log10 of the molar value.
target: T1, human recombinant mGluR5 (Homo sapiens, UniProt P41594); assay: positive modulation of mGluR5, calcium based FLIPR assay; conditions: HEK 293 cell line expressing human recombinant mGluR5; EC50 of the modulation from peak Ca fluorescence signal after glutamate at approx. 5% basal stimulation
T1 construct: expressed in transfected cells; host or cells: HEK 293
Description: The positive modulation of mGluR5 is measured in a HEK 293 cell line expressing human recombinant mGluR5 and is detected with calcium based FLIPR assay. The cells are cultured with DMEM supplemented with 10% FCS, 2 μg/mL tetracycline, 100 μg/mL hygromycin and 500 μg/mL geneticin. The cell culture media is exchanged for tetracycline-free cell culture media 3-7 days before the assay. One day before the assay the cell culture medium is exchanged to DMEM without glutamine and phenol red and supplemented with 10% FCS, 100 μg/mL hygromycin and 500 μg/mL geneticin. On the assay day, the medium of the subconfluent cultures is removed and the cells are detached by addition of 2.5 ml EDTA (0.02%) per 175 cm2 culture flask for 1 minute. The cells are resuspend in Ringer solution (140 mM NaCl, 5 mM KCl, 2.5 mM CaCl2, 1.5 mM MgCl2, 5 mM Glucose, 10 mM Hepes; adjusted to pH 7.4 with NaOH), pooled and Ringer solution added to adjust the volume to 50 mL. The cell suspension is centrifuged for […] at 1500 U/min (425 g). The supernatant is removed and the cells washed a second time with 50 ml fresh Ringer solution and centrifuged again as before. The supernatant is again removed and the pellet resuspended in Ringer solution to 1,000,000 cells/ml (1×10^6 cells/mL). The cells are plated onto BD BioCoat Poly-D-Lysine 384 well plates (20.000 cells/well; 20 μl/well). The lid covered plates are then incubated until use at 37° C./10% CO2. For dye loading, 20 μl of Calcium-4 assay kit solution (prepared according to the manufacturer's description in Ringer solution) are added to the cells and the plates are incubated for […] 37° C. and then […] at room temperature.
Controls, Compound Dilution and Assay Execution:
Each assay plate contained wells with “high” and “low” controls:
Low controls 1% DMSO/ringer solution+basal glutamate activation (defined as 100% CTL).
High controls 10 μM CDPPB+basal glutamate activation (defined as 200% CTL).
Test compounds are dissolved and diluted in DMSO to 100-fold the desired concentrations. In a second step, the compounds are diluted in Ringer solution such that the compounds are 4-fold more concentrated than the desired final assay concentration. The final DMSO concentration was 1%.
20 μl of each compound solution are then transferred to the assay plate and the Ca2+ kinetic is measured to determine any intrinsic compound activity. After 5 mM incubation in the FLIPR device, the second stimulation with 20 μl of glutamate in Ringer solution (glutamate concentration adjusted to approximately 5% basal stimulation of the maximal possible glutamate effect) is added and the kinetic Ca2+ response of the wells was measured for the modulation effect.
The peak height of the Ca release related fluorescence signal (9-66) is used for the EC50. The EC50 of the modulation is calculated over a nonlinear regression with GraphPad Prism (Table 1).

T1 sequence (P41594 21-1212): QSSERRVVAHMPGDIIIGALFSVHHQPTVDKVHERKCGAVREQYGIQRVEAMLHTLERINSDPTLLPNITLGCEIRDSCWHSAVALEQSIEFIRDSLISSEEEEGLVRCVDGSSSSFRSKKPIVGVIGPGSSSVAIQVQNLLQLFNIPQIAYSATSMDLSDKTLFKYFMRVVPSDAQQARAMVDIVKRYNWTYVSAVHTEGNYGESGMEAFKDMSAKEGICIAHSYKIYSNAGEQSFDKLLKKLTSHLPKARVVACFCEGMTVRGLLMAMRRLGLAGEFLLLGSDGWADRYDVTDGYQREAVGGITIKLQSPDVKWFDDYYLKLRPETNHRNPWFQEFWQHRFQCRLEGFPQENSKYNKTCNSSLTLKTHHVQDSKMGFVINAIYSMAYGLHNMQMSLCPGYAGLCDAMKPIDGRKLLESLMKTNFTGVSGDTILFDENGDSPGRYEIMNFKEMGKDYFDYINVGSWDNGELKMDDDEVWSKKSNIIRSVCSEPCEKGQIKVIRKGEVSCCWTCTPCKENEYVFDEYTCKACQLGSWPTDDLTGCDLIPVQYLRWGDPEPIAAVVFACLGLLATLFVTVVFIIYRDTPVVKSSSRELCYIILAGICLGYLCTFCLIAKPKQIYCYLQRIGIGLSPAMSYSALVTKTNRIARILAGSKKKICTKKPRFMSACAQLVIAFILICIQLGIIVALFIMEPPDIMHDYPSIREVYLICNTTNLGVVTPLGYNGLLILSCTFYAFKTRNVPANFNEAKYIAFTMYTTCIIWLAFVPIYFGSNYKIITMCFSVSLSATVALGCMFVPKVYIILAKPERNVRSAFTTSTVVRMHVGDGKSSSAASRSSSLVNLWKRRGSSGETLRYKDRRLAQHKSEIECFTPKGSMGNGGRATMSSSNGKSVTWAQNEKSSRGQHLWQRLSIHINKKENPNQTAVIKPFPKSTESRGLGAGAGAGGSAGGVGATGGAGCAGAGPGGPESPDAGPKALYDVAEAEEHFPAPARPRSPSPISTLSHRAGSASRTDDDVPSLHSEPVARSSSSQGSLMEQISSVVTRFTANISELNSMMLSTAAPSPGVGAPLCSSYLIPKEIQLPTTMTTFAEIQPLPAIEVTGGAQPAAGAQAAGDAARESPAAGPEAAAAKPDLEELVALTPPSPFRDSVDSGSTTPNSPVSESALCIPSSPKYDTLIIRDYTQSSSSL

Row | SMILES | pEC50
1 | Cc1cc(-c2cc(-c3ccccc3)nn2CC(=O)N2CCc3nc(C)sc3CC2)ccn1 [Example 7.01.064] | 5.91
2 | Cc1cc(-c2cc(-c3ccccc3)n(CC(=O)N3CCC(c4nnc(C(C)C)o4)CC3)n2)ccc1F [Example 7.02.017] | 7.17
3 | COc1cc(-c2cc(C(C)C)n(CC(=O)N3CCc4nc(C)sc4CC3)n2)ccc1F [Example 7.02.051] | 6.72
4 | CCc1cc(-c2ccc(F)cc2)nn1CC(=O)N1CCc2nc(N)sc2CC1 [Example 7.02.030] | 5.75
5 | CCc1cc(-c2cccc(C#N)c2)nn1CC(=O)N1CCc2nc(C)sc2CC1 [Example 7.02.184] | 6.88
6 | Cc1nnc(N2CCN(C(=O)Cn3nc(-c4ccc(F)c(C)c4)cc3C)CC2)o1 [Example 7.01.063] | 6.48
7 | COc1nc2c(s1)CCN(C(=O)Cn1nc(-c3ccc(F)c(C)c3)cc1-c1ccccc1)CC2 [Example 7.02.161] | 7.46
8 | Cc1ccc(-c2cc(-c3ccccc3)n(CC(=O)N3CCc4nc(N)sc4CC3)n2)nc1 [Example 7.02.117] | 7.18
9 | CCc1cc(-c2ccc(C)c(C)c2)nn1CC(=O)N1CC=C(c2cc(OC)ncn2)CC1 [Example 7.02.078] | 6.63
10 | CCc1cccc(-c2cc(CC)n(CC(=O)N3Cc4nc(C)sc4C3)n2)c1 [Example 7.02.125] | 6.60
11 | COc1ccc(-c2cc(C(C)C)n(CC(=O)N3Cc4nc(C)sc4C3)n2)cc1 [Example 7.02.045] | 5.85
12 | CCc1cccc(-c2cc(CC)n(CC(=O)N3CCN(c4cccc(OC)c4)C(=O)C3)n2)c1 [Example 7.02.065] | 6.71
13 | CCc1cc(-c2cccc(C)c2)nn1CC(=O)N1CC=C(c2ncc(OC)cn2)CC1 [Example 7.02.082] | 6.54
14 | Cc1cc(-c2cc(-c3ccccc3)n(CC(=O)N3CCc4ncccc4C3)n2)ccc1F [Example 7.01.078] | 7.11
15 | COc1cc(-c2cc(-c3ccccc3)n(CC(=O)N3CCc4nc(N)sc4CC3)n2)ccc1F [Example 7.02.149] | 7.38
16 | Cc1csc(N2CCN(C(=O)Cn3nc(-c4ccc(F)c(C)c4)cc3-c3ccccc3)CC2)n1 [Example 7.02.158] | 6.94
17 | CCc1cc(-c2ccc(F)c(C)c2)nn1CC(=O)N1CCc2cn[nH]c2CC1 [Example 7.01.098] | 6.32
18 | CCc1cc(-c2cccc(Cl)c2)nn1CC(=O)N1CCc2nc(C)sc2CC1 [Example 7.02.109] | 7.21
19 | Cc1nc2n(n1)CCN(C(=O)Cn1nc(-c3ccc(F)c(C)c3)cc1-c1ccccc1)CC2 [Example 7.02.231] | 7.72
20 | COc1ccc(-c2cc(-c3ccccc3)n(CC(=O)N3Cc4nc(C)oc4C3)n2)cc1C [Example 7.02.246] | 7.21
21 | Cc1cnc(C2=CCN(C(=O)Cn3nc(-c4ccc(F)c(C)c4)cc3-c3ccccc3)CC2)o1 [Example 7.02.100] | 8.40
22 | CCCc1cc(-c2ccc(F)c(C)c2)nn1CC(=O)N1CC=C(c2ncc(OC)cn2)CC1 [Example 7.02.071] | 7.15
23 | CCc1cc(-c2ccc(F)c(C)c2)nn1CC(=O)N1CCc2nc(C)sc2CC1C (stereo not drawn) [Example 7.01.074] | 7.04
24 | Cc1nnc(N2CCN(C(=O)Cn3nc(-c4ccc(OC(F)F)cc4)cc3-c3ccccc3)CC2)o1 [Example 7.02.225] | 7.77
25 | Cc1cc(-c2cc(-c3ccccc3)n(CC(=O)N3CCc4cn[nH]c4CC3)n2)ccc1F [Example 7.01.052] | 7.51
26 | Cc1nc2c(s1)CN(C(=O)Cn1nc(-c3ccc(C)c(F)c3)cc1-c1ccccc1)C2 [Example 7.02.252] | 7.16
27 | Cc1nc2c(s1)CCN(C(=O)Cn1nc(-c3ccc(F)cn3)cc1-c1ccc(F)cc1)CC2 [Example 7.02.061] | 7.02
28 | Cc1nnc(C2=CCN(C(=O)Cn3nc(-c4ccc(C)c(C)c4)cc3-c3ccccc3)CC2)o1 [Example 7.02.114] | 7.54
29 | Cc1cc(-c2cc(-c3ccccc3)n(CC(=O)N3CC=C(c4ncccn4)CC3)n2)ccc1F [Example 7.02.014] | 7.68
30 | CCc1cc(-c2ccc(F)c(C)c2)nn1CC(=O)N1CCC(c2ncc(C)s2)CC1 [Example 7.02.141] | 6.86

Continued by rising pEC50, values first:

Row | pEC50 | SMILES
31 | 6.00 | CCc1cc(-c2cccc(C)c2)nn1CC(=O)N1CCC(c2ncc(OC)cn2)CC1 [Example 7.02.081]
32 | 6.10 | O=C(Cn1nc(-c2ccccc2)cc1-c1ccccc1)N1CCC(c2nnc(-c3ccc(F)cc3)o2)CC1 [Example 7.01.047]
33 | 6.20 | CC(C)c1cc(-c2ccc(F)cc2)nn1CC(=O)N1CCc2nc(N)sc2CC1 [Example 7.02.073]
34 | 6.24 | O=C(Cn1nc(-c2ccccc2)cc1-c1ccccc1)N1CCN(c2nccc3sccc23)CC1 [Example 7.01.048]
35 | 6.29 | COC(=O)c1ccc2c(c1)CCN(C(=O)Cn1nc(-c3ccccc3)cc1-c1ccccc1)C2 [Example 7.01.022]
36 | 6.30 | O=C(Cn1nc(-c2ccccc2)cc1-c1ccccc1)N1CCc2ncnc(-c3ccccc3)c2CC1 [Example 7.01.026]
37 | 6.45 | CCc1cc(-c2ccc(F)c(C)c2)nn1CC(=O)N1CC=C(c2cccc(OC)c2)CC1 [Example 7.02.137]
38 | 6.48 | CCc1cc(-c2ccc(F)cc2)nn1CC(=O)N1CCc2nc(C)sc2CC1 [Example 7.02.029]
39 | 6.60 | COc1cnc(C2CCN(C(=O)Cn3nc(-c4ccc(C)c(C)c4)cc3-c3ccccc3)CC2)nc1 [Example 7.02.088]
40 | 6.81 | CCc1cccc(-c2cc(CC)n(CC(=O)N3CCc4nc(C)sc4CC3)n2)c1 [Example 7.02.129]
41 | 6.84 | CCCc1cc(-c2ccc(F)c(C)c2)nn1CC(=O)N1CCC(c2nnc(C)o2)CC1 [Example 7.02.210]
42 | 6.87 | Cc1cc(-c2cc(C3CC3)n(CC(=O)N3CCc4nc(N)sc4CC3)n2)ccc1F [Example 7.02.036]
43 | 6.90 | Cc1ccc(-c2cc(-c3ccccc3)n(CC(=O)N3Cc4nc(C)sc4C3)n2)nc1 [Example 7.02.118]
44 | 6.91 | CCc1cc(-c2ccc(F)c(C)c2)nn1CC(=O)N1CCc2nc(C)sc2C1 [Example 7.01.067]
45 | 6.92 | CCc1cc(-c2ccc(F)c(C)c2)nn1CC(=O)N1CCN(c2nnc(C(F)(F)F)s2)CC1 [Example 7.02.162]
46 | 6.95 | Cc1nc2c(s1)CN(C(=O)Cn1nc(-c3ccc(OC(F)F)cn3)cc1-c1ccccc1)C2 [Example 7.02.237]
47 | 7.07 | COc1ccc(-c2cc(-c3ccccc3)n(CC(=O)N3CCc4nc(C)sc4CC3)n2)cc1C [Example 7.02.240]
48 | 7.26 | COc1cc(C2CCN(C(=O)Cn3nc(-c4ccc(F)c(C)c4)cc3-c3ccccc3)CC2)ncn1 [Example 7.02.021]
49 | 7.43 | COc1ccc2c(n1)CCN(C(=O)Cn1nc(-c3ccc(F)c(C)c3)cc1-c1ccccc1)CC2 [Example 7.01.091]
50 | 7.51 | Cc1nnc(N2CCN(C(=O)Cn3nc(-c4ccc(C(F)F)cc4)cc3-c3ccccc3)CC2)o1 [Example 7.02.258]
51 | 7.55 | COc1cc(-c2cc(-c3ccccc3)n(CC(=O)N3Cc4nc(C)sc4C3)n2)ccc1F [Example 7.02.150]
52 | 7.57 | Cc1cnc(C2=CCN(C(=O)Cn3nc(-c4ccc(F)c(C)c4)cc3-c3ccccc3)CC2)nc1 [Example 7.02.102]
53 | 7.89 | Cc1nc2c(o1)CN(C(=O)Cn1nc(-c3ccc(OC(F)F)cc3)cc1-c1ccccc1)C2 [Example 7.02.223]
54 | 7.96 | CCc1nc2c(o1)CN(C(=O)Cn1nc(-c3ccc(F)c(C)c3)cc1CC)C2 [Example 7.02.256]
